Assay [1] addresses T1, CAII (Homo sapiens, UniProt P00918). In words: Kinetic analyses of covalent modification, intact protein LC-MS. The assay is classed as binding. On the set-up: purchased Sigma Aldrich C6624-500UG; host or cells: E. coli. The following applies: 0.5 μM CAII; 5-100 μM SF; 0-24 h; 20 °C. On the procedure: The kinetics of binding were investigated by incubation of the resynthesized and purified SFs 2b–e with CAII at a range of concentrations and analysis by intact protein LC–MS over a 24 h period (see Figure S9). The concentration–response was analyzed based on a two-step model of reversible ligand (L) binding and subsequent irreversible covalent modification of the protein (P) (P + L ⇌ P·L → PL) (see Figure S10).[24] Time courses were fit to a single exponential function to give a kobs for each concentration (Figure 3d). These were then fitted using a Michaelis–Menten model to determine kinact (corresponding to the rate of covalent-bond formation) and KI (corresponding to the recognition of the ligand for the protein pocket) (Figure 3e,f). […]. This is consistent with the strong binding of aryl sulfonamides to the CAII Zn^2+ binding pocket.[33] […] The slow rate of the reaction may be attributed to a suboptimal trajectory of the SF group toward the His64 residue in the reversible bound conformation and/or low nucleophilicity of the residue.[14]
The (resynthesized and purified) SF hits (2b–e, 10 mM) were plated into seven 384-well plates with DMSO to make up identical plates with final concentrations of 100, 50, 20, 10, or 5 μM after adding 15 μL of protein stock solution per well. The percentage of DMSO was kept constant. Purified CAII was subsequently added across all plates. Final concentrations were 0.5 μM protein; 100, 50, 20, 10, or 5 μM SF. The plates were sealed and centrifuged, and the first six plates were immediately queued for analysis by intact protein LC–MS at a temperature of 20 °C with the final plate paused for a 24 h timepoint.
5. CAII – kinetic analyzes
5.1. Protocol for kinetic analyzes (CAII)
The (resynthesized and purified) SF hits (2b–e) were plated into seven Greiner 384 white low volume plate from a 10 mM source in DMSO. Differing volumes were added such that the final concentrations for each compound would be: 100, 50, 20, 10, or 5 µM after adding 15 µL of protein stock solution per well. Volumes of DMSO were made to be consistent for every well. Purified CAII diluted from original stock into a buffer made up of HEPES (pH 7.5, 25 mM) and NaCl (50 mM) in distilled MS-grade water (15 µL per well) was subsequently added across the plates. Final concentrations: 0.5 µM protein; 100, 50, 20, 10, or 5 µM SF. The plates were sealed, centrifuged (1 min, 1000 rpm), and the first six plates were immediately queued for analysis by intact protein LC-MS at a temperature of 20 °C with the final plate paused for a 24 h timepoint. The resulting modification yields were plotted in GraphPad Prism (Version 5.0.4) software against the time of sampling.11 Non-linear regression analyzes were conducted using a ‘one-phase association’ model, with the y=0 value constrained to ‘0’ and plateau value constrained to ‘100’. The observed rate constants (kobs, value ‘K’ in GraphPad) were extracted for each compound at each concentration, then replotted against the corresponding compound concentration. Further non-linear regression analyzes were conducted using a ‘Michaelis-Menten’ model, from which kinact values (‘Vmax’ in GraphPad) and KI values (‘Km’) were extracted. […]
To a Labcyte 384LDV plate containing 96 amine functionalized fragments (10 mM) in DMSO (5 µL per well) was added a stock solution of OSu 2a (10 mM) and NEM (30 mM) in DMSO (5 µL per well). The plate was sealed, centrifuged (1 min, 1000 rpm), and allowed to sit at room temperature for 1 h. After the reaction (assumed product concentration: 5 mM), a Labcyte ECHO© 555 Liquid Handler was used to transfer the library of SFs to a Greiner 384 white low volume plate. […]

Assay [2] concerns the target T1, CAII. The assay can be described thus: Identification of site of covalent modification by tandem MS. Details: purchased Sigma Aldrich C6624-500UG; host or cells: E. coli. The following applies: for major site of covalent modification: 2 μM CAII, 50 μM SF, 24 h, 20 °C, trypsin digest LC-MS/MS; for minor site of covalent modification: N-terminal peptide 1MSHHWGYGK9. The source says:
Tandem MS analyses were subsequently employed for identification of the amino acid residue(s) that was covalently modified. Samples of CAII modified by the resynthesized and purified SFs 2d and 2e were digested using trypsin and analyzed by LC–MS/MS. This identified peptides 59ILNNGH*AFNVEFDDSQDKAVLK80 and 59ILNNGH*AFNVEFDDSQDK76 as the major site(s) of modification on His64 for both 2d (366 Da) (see Figure S6) and 2e (380 Da) (Figure 3b), respectively. Further to this, minor modifications were observed on the N-terminal peptide 1MSHHWGYGK9 at His3 (2d and 2e) and Tyr7 (2d only).
The (resynthesized and purified) SF hits (2d and 2e, 10 mM) were plated into a 384-well plate. Purified CAII was subsequently added across the plate. Final concentrations: 2 μM protein; 50 μM SF. The plate was sealed, centrifuged, and incubated at 20 °C for 24 h, and 15 μL aliquots were subsequently removed and analyzed by intact protein LC–MS. The remaining samples (1 μg) were separated by sodium dodecyl sulfate-polyacrylamide gel electrophoresis to remove excess unbound compounds. Gels were stained with colloidal Comassie InstantBlue, and bands corresponding to CAII were excised, reduced with TCEP (10 mM, 65 °C, 30 min), and alkylated with iodoacetamide (10 mM, rt, 30 min, dark). Samples were digested with trypsin (1:10 E/S, 37 °C, 16 h) in ammonium bicarbonate (100 mM). After removal of the supernatant, peptides were extracted using acetonitrile. Combined supernatants were centrifuged and acidified prior to injection into the LC–MS/MS system. Tandem MS spectra were searched for peptide matches against the sequence for CAII. Raw files were searched using trypsin as the enzyme. Masses corresponding to [SF – HF] were allowed as variable modification(s) on cysteine, histidine, lysine, tyrosine, serine, and threonine as well as the protein N-terminus. MS/MS spectra were manually validated and annotated. […]
4.2. Identification of the site of covalent modification by tandem MS (CAII)
The (resynthesized and purified) SF hits (2d and 2e) were plated into a Greiner 384 PP F-bottom plate from a 10 mM source in DMSO.
Purified CAII diluted from original stock into a buffer made up of HEPES (pH 7.5, 25 mM) and NaCl (50 mM) in distilled MS-grade water (50 µL per well) was subsequently added across the plate. Final concentrations: 2 µM protein; 50 µM SF. The plate was sealed, centrifuged (1 min, 1000 rpm), incubated at 20 °C for 24 h, and 15 µL aliquots were subsequently removed and analyzed by intact protein LC-MS. The remaining samples (1 μg) were separated by SDS-PAGE to remove excess unbound compound. Gels were stained with colloidal Comassie InstantBlue and bands corresponding to CAII were excised, reduced with 10 mM TCEP (65 °C, 30 mins), and alkylated with 10 mM iodoacetamide (r.t., 30 mins, dark). […]

Each structure is given as a SMILES string.

The results in this text go back to PMC10510102, “Efficient Ligand Discovery Using Sulfur(VI) Fluoride Reactive Fragments” (ACS Chemical Biology, 2023).

Consider `NS(=O)(=O)c1ccc(CCNC(=O)Cc2ccc(S(=O)(=O)F)cc2)cc1` [2e], for which, on CAII [1], the Ki is < 5 µM, the kinact was 1.8e-05 s⁻¹ and the kinact/KI was > 3.6 M⁻¹ s⁻¹. In addition, at CAII [2], the “major site of covalent modification” value is “His64” and the “minor site of covalent modification” value was “His3”.

With `CC(NC(=O)Cc1ccc(S(=O)(=O)F)cc1)c1cccc(S(N)(=O)=O)c1` (stereo not shown) [2b], at CAII [1], the KI (inactivation) was 8.9 µM, the kinact amounted to 3.2e-05 s⁻¹ and the kinact/KI worked out at 3.6 M⁻¹ s⁻¹.

Take `NS(=O)(=O)c1cccc(CNC(=O)Cc2ccc(S(=O)(=O)F)cc2)c1` [2d]: on CAII [1], the Ki is < 5 µM, the inactivation rate constant (kinact) came out at 3e-05 s⁻¹ and the kinact/KI was > 6.1 M⁻¹ s⁻¹. For the same molecule, on CAII [2], the “major site of covalent modification” value is reported as “His64”; the “minor site of covalent modification” value was “His3 and Tyr7”.

In the case of `NS(=O)(=O)Cc1cccc(CNC(=O)Cc2ccc(S(=O)(=O)F)cc2)c1` [2c], on CAII [1], the KI (inactivation) amounted to 16 µM, the kinact was 3.3e-05 s⁻¹ and the kinact/KI amounted to 2 M⁻¹ s⁻¹.

What is called kinact is the rate constant of inactivation at saturating inhibitor. The term kinact/KI denotes the maximal inactivation rate divided by the concentration that gives half of it.
